Data reported in patent publication US20250205195A1, “BENZYLOXY-BENZYLAMINYL AMINO ACID DERIVATIVE FOR ADJUSTING TSLP/TSLPR SIGNAL TRANSMISSION” (AMTIXBIO CO., LTD., priority 2021, published 2025).

System: TSLP
Assay: TNF-α-induced TSLP in HaCaT cells (ELISA)
Format: cell-based, human
Details: HaCaT culture supernatant, TNF-α stimulated, 1 h pretreatment, equal amounts of compounds
Method: Human keratinocyte HaCaT cells (obtained from the Korean Cell Line Bank) were seeded in a 12-well plate at an initial density of 2×10^5 cells/well and cultured at 37° C. for 16 to 24 hours. FK506 (Sigma), compounds 27 and 29 of the present invention were then added to the HaCaT cell culture medium at final concentrations of 0, 1, 2, 4, and 8 µg/mL, and the cells were cultured at 37° C. for 1 hour. Next, to induce TSLP, the culture medium was treated with TNF-α (Sigma-Aldrich, USA) to a final concentration of 100 ng/mL, and the cells were cultured for an additional 24 hours at 37° C. The culture supernatant was collected, and the amount of induced TSLP from HaCaT cells was determined using an ELISA kit (R&D Systems, USA) according to the manufacturer's instructions. […] Under the same conditions, to compare the TSLP reduction efficiency R.R. (Reduction rate) of compound 27, positive control compound and compound 29, equal amounts of compounds 27, 29 and FK506 (Sigma-Aldrich, USA) were pretreated for 1 hour. The amount of TSLP released into the culture supernatant from HaCaT cells stimulated by TNF-α was quantitatively analyzed and presented in Table 3 and FIG. 3 (c).

CCC(NC)C(=O)NCc1ccc(OCc2ccc(Cl)cc2)cc1 (racemic) [Compound 29, (R)/(S)—N-(4-((4-chlorobenzyl)oxy)benzyl)-2-(methylamino)butanamide]
R.R (Reduction rate) of TSLP: 58%
TSLP: 210 ng/mL
